Experimental data as given in patent publication US20120046329A1, “MODULATORS OF NOD1 AND NOD2 SIGNALING, METHODS OF IDENTIFYING MODULATORS OF NOD1 AND NOD2 SIGNALING, AND USES THEREOF” (Sanford-Burnham Medical Research Institute, priority 2010, published 2012).

Columns and labels:
[1] = system: IKKγ/NEMO, MYD88, FLIP, CARD6, APAF1 or NLRC4 over-expression; assay: Gene transfection NF-κB luciferase, HEK 293T; type: cell-based, human
NOD1 = target: T1, NOD1 (Homo sapiens, UniProt Q9Y239); assay: γ-tri-DAP-induced IkBα mRNA expression; type: cell-based
T1 sequence (Q9Y239 1-953): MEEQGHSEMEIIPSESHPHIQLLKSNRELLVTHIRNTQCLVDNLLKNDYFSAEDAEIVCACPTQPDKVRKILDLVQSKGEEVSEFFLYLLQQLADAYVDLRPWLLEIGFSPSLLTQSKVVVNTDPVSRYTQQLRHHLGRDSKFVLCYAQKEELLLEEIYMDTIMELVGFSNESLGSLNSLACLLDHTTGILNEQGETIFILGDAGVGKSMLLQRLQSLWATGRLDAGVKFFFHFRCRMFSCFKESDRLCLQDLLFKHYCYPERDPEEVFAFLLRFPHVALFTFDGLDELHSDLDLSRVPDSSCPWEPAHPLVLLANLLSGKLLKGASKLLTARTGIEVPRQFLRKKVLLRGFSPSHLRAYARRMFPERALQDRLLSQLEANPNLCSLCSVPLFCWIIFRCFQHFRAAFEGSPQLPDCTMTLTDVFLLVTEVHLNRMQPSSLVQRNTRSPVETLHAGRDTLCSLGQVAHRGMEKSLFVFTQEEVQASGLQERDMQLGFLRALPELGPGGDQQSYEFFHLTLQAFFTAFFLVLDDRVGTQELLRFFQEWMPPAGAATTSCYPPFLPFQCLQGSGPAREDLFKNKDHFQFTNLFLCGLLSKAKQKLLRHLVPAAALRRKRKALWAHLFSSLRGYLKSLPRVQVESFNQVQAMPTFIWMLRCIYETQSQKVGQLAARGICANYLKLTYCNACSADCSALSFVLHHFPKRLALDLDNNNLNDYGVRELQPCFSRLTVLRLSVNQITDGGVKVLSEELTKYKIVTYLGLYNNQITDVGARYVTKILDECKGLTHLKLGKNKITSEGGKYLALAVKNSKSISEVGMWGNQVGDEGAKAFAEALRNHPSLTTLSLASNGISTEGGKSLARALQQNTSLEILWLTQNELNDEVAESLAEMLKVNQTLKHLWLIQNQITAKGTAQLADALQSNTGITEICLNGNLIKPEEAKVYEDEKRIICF
Method: RNA analysis: Total RNA was extracted using RNeasy™ Plus Mini kit (Qiagen). After isolation, 1-5 μg total RNA was reverse-transcribed, in the presence of oligo (dT) primer, according to the manufacturer (SuperScript First-Strand Synthesis, Invitrogen). First strand cDNA was diluted and analyzed in triplicates with gene-specific primers by realtime PCR, using a Stratagene Mx3000p sequence detection system with SYBR Green PCR master mix (Applied Biosystems). The gene expression (fold induction) was normalized with the respective levels of beta-actin or cyclophilin (CPH) expression. For TaqMan™-based quantitative PCR, assays were performed using TaqMan™ Gene Expression Master Mix with validated primers and probes (TNF: Hs00174128_ml, IL1B: Hs01555410_ml, IL6: Hs00985639_ml, NOD1: Hs00196075_ml, ACTB: hs999999903_ml) from Applied Biosystems.

[2] = system: interferon response stimuli (RIG-I/MDA-5, IRF3); assay: ISRE-driven luciferase reporter in HEK293T, poly(I:C), poly(dA:dT), Sendai virus; conditions: 5 μM
TLR9 = target: T2, TLR9 (Homo sapiens, UniProt Q9NR96); assay: NF-κB luciferase in 697 pre-B leukemia cells, TLR9 ligand CpG DNA; conditions: 697 cells, 10 μM
T2 sequence (Q9NR96 26-1032): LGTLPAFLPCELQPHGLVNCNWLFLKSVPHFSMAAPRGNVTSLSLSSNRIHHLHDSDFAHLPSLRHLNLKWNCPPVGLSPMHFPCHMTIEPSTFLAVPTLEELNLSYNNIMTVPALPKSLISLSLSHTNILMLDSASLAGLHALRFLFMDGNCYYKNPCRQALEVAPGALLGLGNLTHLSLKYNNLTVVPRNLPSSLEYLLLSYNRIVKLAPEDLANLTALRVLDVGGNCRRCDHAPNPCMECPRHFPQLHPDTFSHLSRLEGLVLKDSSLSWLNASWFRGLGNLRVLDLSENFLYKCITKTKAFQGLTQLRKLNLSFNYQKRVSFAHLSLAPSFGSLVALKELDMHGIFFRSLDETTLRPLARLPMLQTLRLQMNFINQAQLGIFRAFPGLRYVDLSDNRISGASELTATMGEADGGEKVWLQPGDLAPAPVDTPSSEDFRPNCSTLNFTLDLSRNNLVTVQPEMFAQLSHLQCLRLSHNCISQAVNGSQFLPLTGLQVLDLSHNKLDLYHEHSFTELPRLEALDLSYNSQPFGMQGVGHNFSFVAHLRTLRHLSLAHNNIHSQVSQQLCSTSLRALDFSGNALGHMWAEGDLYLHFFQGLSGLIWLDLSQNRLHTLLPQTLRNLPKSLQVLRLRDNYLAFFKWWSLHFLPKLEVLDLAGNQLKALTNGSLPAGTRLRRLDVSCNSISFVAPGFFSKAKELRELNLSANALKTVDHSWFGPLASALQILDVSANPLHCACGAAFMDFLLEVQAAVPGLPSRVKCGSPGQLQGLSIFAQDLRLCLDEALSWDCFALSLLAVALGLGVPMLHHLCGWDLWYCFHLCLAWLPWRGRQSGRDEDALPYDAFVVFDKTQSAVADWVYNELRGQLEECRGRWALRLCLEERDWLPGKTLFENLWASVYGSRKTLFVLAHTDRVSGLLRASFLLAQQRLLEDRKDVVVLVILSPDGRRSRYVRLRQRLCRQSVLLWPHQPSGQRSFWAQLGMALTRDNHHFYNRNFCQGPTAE
Method: Luciferase activity was measured 24 h later (mean±SD; n=3).
Gene reporter assays: HEK293T or 697 cells containing integrated 5×NFκB-driven luciferase reporter gene were seeded into 96-well plates at 10^4 to 10^5 cells per well, and treated with respective inducers for 16 to 24 hours. […] The next day, cells were transfected with 50 ng pNF-κB-LUC (Clontech) and 5 ng Renilla luciferase gene driven by a constitutive TK promoter (pRL-TK; Promega) along with indicated plasmids. After 24 h of transfection in some experiments, cells were stimulated with various agents for 24 h or directly lysed and luciferase activities were assayed using the Dual Luciferase kit (Promega). The results for firefly luciferase activity were normalized to renilla luciferase activity. […] The mean results were obtained from triplicates.

TLR1, 2, 4, 5, 6 and 8 = assay: NF-κB SEAP reporter in PMA-differentiated THP.1 macrophages, TLR agonists; type: cell-based, human; conditions: 5 μM, 24 h
Method: After 24 h incubation, SLAP activity in culture supernatants was measured, expressing data as percentage relative to treatment with inducer only (indicated as 100%; mean±SEM, n=2).
Human myelomonocytic THP-1 cells containing a NF-κB/AP-1-inducible reporter gene encoding secreted alkaline phosphatase (SEAP) were employed for convenient monitoring of NF-κB activity.
THP.1-Blue™ monocytic cells (Invivogen), stably containing NF-κB-driven secreted alkaline phosphatase reporter (SEAP), were plated and further treated as indicated. Stimulation was accessed colorimetrically measuring SEAP secreted into culture supernatants (QUANTI-Blue'm, Invivogen), using SpectraMax 190 plate reader (Molecular Devices).

Cc1ccc(S(=O)(=O)n2c(N)nc3ccccc32)cc1 [Compound 1]
Impact on NF-κB in cells over-expressing IKKγ/NEMO, MYD88, FLIP, CARD6, APAF1 or NLRC4 [1]: No significant impact
γ-tri-DAP-induced expression of IkBα at the mRNA level (NOD1): inhibited
Effect on ISRE-driven reporter gene activity induced by other interferon response stimuli [2]: no inhibition
Effect on NF-κB activity induced by TLR9 ligand CpG DNA (TLR9): did not inhibit
Effect on NF-κB-inducible SEAP activity induced by TLR agonists (TLR1, 2, 4, 5, 6 and 8): No inhibitory effects
